From ChEMBL document CHEMBL3576838, “Synthesis and in vitro and in vivo biological evaluation of substituted nitroquinoxalin-2-ones and 2,3-diones as novel trichomonacidal agents” (Eur J Med Chem, 2015)

Tests used:
[1] = system: Trichomonas vaginalis; assay: Trichomonicidal activity against Trichomonas vaginalis JH31A#4 trophozite assessed as inhibition of parasite growth after 24 hrs by resazurin redox dye based fluorimetric microtiter method; assay type: functional, organism-based; settings: JH31A#4, 24 h
[2] = system: Trichomonas vaginalis; assay: Trichomonicidal activity against Trichomonas vaginalis JH31A#4 trophozite assessed as inhibition of parasite growth at 300 uM after 24 hrs by resazurin redox dye based fluorimetric microtiter method; assay type: functional; settings: JH31A#4, 24 h
[3] = system: Trichomonas vaginalis; assay: Trichomonicidal activity against Trichomonas vaginalis JH31A#4 trophozite assessed as inhibition of parasite growth at 150 uM after 24 hrs by resazurin redox dye based fluorimetric microtiter method; assay type: functional; settings: JH31A#4, 24 h
[4] = system: Trichomonas vaginalis; assay: Trichomonicidal activity against Trichomonas vaginalis JH31A#4 trophozite assessed as inhibition of parasite growth at 75 uM after 24 hrs by resazurin redox dye based fluorimetric microtiter method; assay type: functional; settings: JH31A#4, 24 h
[5] = system: Trichomonas vaginalis; assay: Trichomonicidal activity against Trichomonas vaginalis JH31A#4 trophozite assessed as inhibition of parasite growth at 37.5 uM after 24 hrs by resazurin redox dye based fluorimetric microtiter method; assay type: functional; settings: JH31A#4, 24 h
[6] = system: Trichomonas vaginalis; assay: Trichomonicidal activity against Trichomonas vaginalis JH31A#4 trophozite assessed as inhibition of parasite growth at 18.75 uM after 24 hrs by resazurin redox dye based fluorimetric microtiter method; assay type: functional; settings: JH31A#4, 24 h
[7] = system: Trichomonas vaginalis; assay: Trichomonicidal activity against Trichomonas vaginalis JH31A#4 trophozite assessed as inhibition of parasite growth at 9.37 uM after 24 hrs by resazurin redox dye based fluorimetric microtiter method; assay type: functional; settings: JH31A#4, 24 h
[8] = system: Trichomonas vaginalis; assay: Trichomonicidal activity against Trichomonas vaginalis JH31A#4 trophozite assessed as inhibition of parasite growth at 10 ug/ml after 24 hrs by resazurin redox dye based fluorimetric microtiter method; assay type: functional; settings: JH31A#4, 24 h, read-out: GI
[9] = system: Vero; assay: Cytotoxicity against African green monkey Vero cells at 300 uM after 24 hrs by resazurin redox dye based fluorimetric microtiter method; assay type: cell-based; settings: chlorocebus sabaeus
[10] = Cytotoxicity against African green monkey Vero cells assessed as inhibition of cell growth after 24 hrs by resazurin redox dye based fluorimetric microtiter method; settings: chlorocebus sabaeus
[11] = Selectivity index, ratio of CC50 for African green monkey Vero cells to IC50 for Trichomonas vaginalis JH31A#4 trophozite; assay type: functional
[12] = system: Trichomonas vaginalis; assay: Trichomonicidal activity against Trichomonas vaginalis C-1:NIH trophozoites infected in NMRI mouse assessed as reduction of pathogenicity at 25 mg/kg/day, po administered for 7 days from day 3 to day 10 post-infection measured at day 15 post-infection; assay type: functional

Row | Compound | IC50 [1] | inhibition at 300 µM [2] | inhibition at 150 µM [3] | inhibition at 75 µM [4] | inhibition at 37.5 µM [5] | inhibition at 18.75 µM [6] | inhibition at 9.37 µM [7] | inhibition of growth at 10 µg/mL [8] | Activity [9] | CC50 at 24 h [10] | Ratio CC50/IC50 [11] | inhibition in vivo at 25 mg/kg/day [12]
1 | O=c1[nH]c2cc([N+](=O)[O-])ccc2n(CCCCCCl)c1=O | 147 µM | 94% | 47.1% | 9.7% | 0.85% | 0.42% | 0% |  |  |  |  | 
2 | O=C1CN(CCCCCl)c2ccc([N+](=O)[O-])cc2N1 |  |  |  |  |  |  |  | 73% |  |  |  | 
3 | Cc1ncc([N+](=O)[O-])n1CCO [METRONIDAZOLE] | 4.16 µM | 100% | 100% | 100% | 99.4% | 96% | 82.7% |  | 0% | > 600 µM | >10 | 94%
4 | CN1C(=O)CN(CCCCCCCl)c2ccc([N+](=O)[O-])cc21 |  |  |  |  |  |  |  | 94% |  |  |  | 
5 | O=c1[nH]c2cc([N+](=O)[O-])ccc2n(CCCCCBr)c1=O | 145 µM | 79.6% | 49% | 20.1% | 11.6% | 4.09% | 0% |  |  |  |  | 
6 | CN(C)CCN1CC(=O)N(C)c2cc([N+](=O)[O-])ccc21 | 50.7 µM | 100% | 99.9% | 73.9% | 20.4% | 6.7% | 1.36% | 7% | 17.29% | 648 µM | 12.77 | 
7 | CN1C(=O)CN(CCCCCCl)c2ccc([N+](=O)[O-])cc21 |  |  |  |  |  |  |  | 73% |  |  |  | 
8 | O=C1Nc2cc([N+](=O)[O-])ccc2N2CCCOC12 (centres undefined) | 41.9 µM | 99.5% | 92.8% | 77.4% | 51.3% | 12.1% | 0.98% |  | 2.08% | > 300 µM | >10 | 
9 | Cn1c(=O)c(=O)n(CCCCCBr)c2ccc([N+](=O)[O-])cc21 | 256 µM | 51.1% | 42.8% | 40.9% | 26.9% | 21.5% | 17.8% |  |  |  |  | 
10 | O=C1CN(CCCCCCCl)c2ccc([N+](=O)[O-])cc2N1 |  |  |  |  |  |  |  | 73% |  |  |  | 
11 | Cl.O=C1CN(CCN2CCCCC2)c2ccc([N+](=O)[O-])cc2N1 | 30.7 µM | 99% | 82.2% | 78.3% | 45.6% | 32.7% | 26% |  | 1.51% | > 300 µM | >10 | 
12 | CN1C(=O)CN(CCN2CCCCC2)c2ccc([N+](=O)[O-])cc21 | 29.9 µM | 100% | 100% | 96% | 59.6% | 13.9% | 7.8% |  | 0% | > 300 µM | >10 | 
13 | O=C1CN(CCCO)c2ccc([N+](=O)[O-])cc2N1 | 102 µM | 84% | 68.1% | 28.4% | 26.6% | 4.5% | 3.66% |  |  |  |  | 
14 | Cn1c(=O)c(=O)n(CCCCCCCl)c2ccc([N+](=O)[O-])cc21 | 25.4 µM | 92.6% | 84.7% | 75.5% | 53.1% | 42.1% | 31.6% |  | 14.14% | > 300 µM | >10 | 
